According to publication PMC2966823 (Journal of the American Chemical Society, 2010):

Legend:
[1] = molecular target: cAMP dependent protein kinase A, catalytic subunit α (PKA) (Homo sapiens, UniProt P17612); assay: split-luciferase three-hybrid displacement of Jun-staurosporine, […] inhibitor; type: cell-based; settings: read-out: % inhibition at 10 μM
[2] = molecular target: FGFR1/FLT2 (Homo sapiens, UniProt P11362); assay: as above; type: cell-based; settings: read-out: % inhibition at 10 μM
FGFR1/FLT2, sequence (P11362 478-767 limits assumed): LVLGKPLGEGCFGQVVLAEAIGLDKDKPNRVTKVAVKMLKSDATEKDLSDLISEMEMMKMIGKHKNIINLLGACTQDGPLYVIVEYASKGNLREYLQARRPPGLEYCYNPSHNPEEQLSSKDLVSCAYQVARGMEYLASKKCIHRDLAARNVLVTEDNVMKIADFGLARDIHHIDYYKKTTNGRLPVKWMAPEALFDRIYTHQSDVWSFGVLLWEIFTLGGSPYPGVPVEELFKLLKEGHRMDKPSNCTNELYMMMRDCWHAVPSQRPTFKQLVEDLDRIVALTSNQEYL

Row | Structure (SMILES) | inhibition at 10 µM [1] [%] | inhibition at 10 µM [2] [%]
1 | O=S(=O)(NCCNC/C=C/c1ccc(Br)cc1)c1cccc2cnccc12 [compound 5, H89] | 67 | 
2 | CC(C)[C@H](CO)Nc1nc(Nc2cc(N)cc(Cl)c2)c2ncn(C(C)C)c2n1 [compound 6, aminopurvalanol A] |  | 68
3 | CC(C)[C@H](CO)Nc1nc(Nc2ccc(C(=O)O)c(Cl)c2)c2ncn(C(C)C)c2n1 [compound 8, purvalanol B] |  | 58
